Source: patent publication US10526309B2, “Pan-TAM inhibitors and Mer/Axl dual inhibitors” (The University of North Carolina at Chapel Hill, priority 2015, dated 2020)
Like-named read-outs stand apart in the source and are kept apart here.

Target: T1, Tyro3 (Homo sapiens, UniProt Q06418)
T1 sequence (Q06418 41-890): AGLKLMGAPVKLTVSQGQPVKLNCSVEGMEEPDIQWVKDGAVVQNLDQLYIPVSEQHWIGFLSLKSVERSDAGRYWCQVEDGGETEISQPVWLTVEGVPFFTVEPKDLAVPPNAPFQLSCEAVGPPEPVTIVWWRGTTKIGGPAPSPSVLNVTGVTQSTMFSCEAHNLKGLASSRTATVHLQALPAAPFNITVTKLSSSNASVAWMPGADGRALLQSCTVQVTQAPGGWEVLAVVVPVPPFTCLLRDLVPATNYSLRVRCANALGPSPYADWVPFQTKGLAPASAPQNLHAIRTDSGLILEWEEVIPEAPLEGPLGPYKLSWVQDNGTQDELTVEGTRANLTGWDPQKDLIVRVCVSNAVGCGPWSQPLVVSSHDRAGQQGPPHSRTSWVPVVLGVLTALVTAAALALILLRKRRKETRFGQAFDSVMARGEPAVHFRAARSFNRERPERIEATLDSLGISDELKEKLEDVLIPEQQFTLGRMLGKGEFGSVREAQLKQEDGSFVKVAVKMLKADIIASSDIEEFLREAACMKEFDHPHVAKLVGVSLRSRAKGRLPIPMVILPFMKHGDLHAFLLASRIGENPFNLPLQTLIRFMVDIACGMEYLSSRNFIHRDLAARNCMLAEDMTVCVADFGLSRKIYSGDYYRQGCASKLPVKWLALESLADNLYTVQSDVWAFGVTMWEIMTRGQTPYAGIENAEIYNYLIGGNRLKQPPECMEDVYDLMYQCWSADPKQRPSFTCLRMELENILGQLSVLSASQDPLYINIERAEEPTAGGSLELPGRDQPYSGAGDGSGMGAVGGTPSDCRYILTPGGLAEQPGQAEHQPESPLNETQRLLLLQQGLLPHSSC
Assay: Tyro3 kinase inhibition IC50
Format: biochemical
Conditions: read-out: Tyro3 IC50

Structure (SMILES): O[C@H]1CC[C@H](Nc2nc(Nc3ccccc3)ncc2-c2ccc(CN3CCCC3)cn2)CC1 [UNC4198A]
- IC50 (Example 6): 560 pM
- IC50 (Table 1): < 10000 pM
